# Laboratory results: paper PMC9319939, “Siccanin Is a Dual-Target Inhibitor of Plasmodium falciparum Mitochondrial Complex II and Complex III” (Pharmaceuticals, 2022)
# Columns and labels:
# [1] = target: T1, dihydroorotate dehydrogenase (DHODH) (Plasmodium falciparum, UniProt Q08210); test: DHODH activity, crude mitochondrial fraction, DCIP reduction; assay type: biochemical
# T1 construct: used as crude mitochondrial fraction for all enzymatic assays; endogenous in cells; host or cells: P. falciparum 3D7 trophozoite-stage parasites, crude mitochondrial fraction
# T1 sequence (Q08210 24-569): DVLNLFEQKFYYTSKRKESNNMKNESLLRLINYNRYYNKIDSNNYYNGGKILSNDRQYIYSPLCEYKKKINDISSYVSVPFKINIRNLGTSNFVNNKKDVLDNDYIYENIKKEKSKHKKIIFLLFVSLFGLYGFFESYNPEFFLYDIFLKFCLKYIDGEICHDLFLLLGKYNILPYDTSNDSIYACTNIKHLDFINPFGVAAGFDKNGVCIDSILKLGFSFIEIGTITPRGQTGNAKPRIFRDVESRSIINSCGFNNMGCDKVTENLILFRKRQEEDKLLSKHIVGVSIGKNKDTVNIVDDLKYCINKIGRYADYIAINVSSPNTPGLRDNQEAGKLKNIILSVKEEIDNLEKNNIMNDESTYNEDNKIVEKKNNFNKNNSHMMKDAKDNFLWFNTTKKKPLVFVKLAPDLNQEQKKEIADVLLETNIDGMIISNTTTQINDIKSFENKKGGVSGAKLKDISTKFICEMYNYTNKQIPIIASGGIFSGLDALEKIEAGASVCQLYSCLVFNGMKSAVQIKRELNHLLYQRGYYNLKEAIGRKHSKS
# Protocol: A synchronized parasite culture was grown for 64 h and a crude mitochondrial fraction was prepared from trophozoite-stage cells (as confirmed by Giemsa staining). Infected red blood cells were collected by centrifugation at 800× g for 5 min at 4 °C and incubated for 5 min at room temperature with 40 mL of 0.075% (w/v) saponin in AIM buffer (120 mM KCl, 20 mM NaCl, 10 mM PIPES (1,4-piperazinediethanesulfonic acid) buffer [pH 6.7], 1 mM MgCl2, 5 mM glucose). Released parasites were collected by centrifugation at 2780× g for 7 min at 4 °C and washed three times with AIM buffer. P. falciparum was suspended in MSE buffer [225 mM mannitol, 75 mM sucrose, 0.1 mM ethylenediaminetetraacetic acid (EDTA), 3 mM Tris-HCl buffer, pH 7.4] containing 1 mM phenylmethylsulphonyl fluoride, and disrupted by nitrogen cavitation at 1200 psi using a 4639 Cell Disruption Bomb (Parr Instrument Company; Moline, IL, USA). The unbroken cells and cell debris were removed by centrifugation at 800× g for 5 min at 4 °C. The supernatant was centrifuged at 5000× g for 20 min at 4 °C. […]
# (§1) Complex II, DHODH, MQO, NDH2, G3PDH, and dihydroorotate-cytochrome c (DHO-cyt c) reductase activities were measured, as described previously, using a V-660 spectrophotometer (JASCO; Tokyo, Japan). Briefly, complex II activity was measured at 25 °C in a 1 mL reaction mixture containing 45 μM 2,6-dichlorophenolidophenol (DCIP), 100 μM ubiquinone-2 (UQ2), and 2 mM KCN in 50 mM potassium phosphate buffer, pH 8.0. DHODH, MQO, and G3PDH activities were measured at 25 °C in 1 mL of the reaction mixture containing 45 μM DCIP, 100 μM UQ2, and 2 mM KCN in 30 mM Tris-HCl buffer, pH 8.0. Complex II, DHODH, MQO, and G3PDH activities were measured by monitoring the change in absorbance at 600 nm (reflecting DCIP reduction) after the reaction was initiated by adding 10 mM succinate, 500 μM dihydroorotate, 10 mM malate, or 500 μM glycerol-3-phosphate, respectively. NDH2 activity was measured at 25 °C in 1 mL of the reaction mixture containing 100 µM UQ1 and 2 mM KCN in 50 mM potassium phosphate buffer, pH 8.0. […]
# [2] = system: type-II NADH dehydrogenase (NDH2); test: NDH2 activity, crude mitochondrial fraction, NADH at 340 nm; assay type: biochemical, Plasmodium falciparum
# Protocol: A synchronized parasite culture was grown for 64 h and a crude mitochondrial fraction was prepared from trophozoite-stage cells (as confirmed by Giemsa staining). Infected red blood cells were collected by centrifugation at 800× g for 5 min at 4 °C and incubated for 5 min at room temperature with 40 mL of 0.075% (w/v) saponin in AIM buffer (120 mM KCl, 20 mM NaCl, 10 mM PIPES (1,4-piperazinediethanesulfonic acid) buffer [pH 6.7], 1 mM MgCl2, 5 mM glucose). Released parasites were collected by centrifugation at 2780× g for 7 min at 4 °C and washed three times with AIM buffer. […]
# as §1, with “Complex II, DHODH, MQO, and G3PDH activities were measured by monitoring the change in absorbance at 600 nm (reflecting DCIP reduction) after the reaction was initiated by adding 10 mM succinate, 500 μM dihydroorotate, 10 mM malate, or 500 μM glycerol-3-phosphate, respectively.” left out
# [3] = system: Dd2_DHIQ (ATP4-G358S mutation); test: Growth inhibition of Dd2_DHIQ (cipargamin-resistant); assay type: cell-based; conditions: Plasmodium falciparum, read-out: Growth inhibition EC50, DHIQ
# Protocol: (§2) P. falciparum 3D7-yDHODH was prepared and maintained as described previously. P. falciparum Dd2, and Dd2-derived mutant strains were kindly provided by David A. Fidock, and maintained at Nagasaki University essentially as described in reference, except without supplementation with WR99210.
# (§3) Synchronized ring-form parasites (0.3% parasitemia) were prepared in complete medium containing different concentration of various compounds (at a fixed final DMSO concentration of 0.1% (v/v)) and distributed to 96-well plates at 100 μL/well. After 72 h of incubation, parasite growth was monitored by the previously described lactate dehydrogenase (PfLDH)-based assay method; plates were read using a SpectraMax® Paradigm spectrophotometer (Molecular Devices, Inc.; San Jose, CA, USA). EC50 values were calculated using Prism® ver.6.01 (GraphPad; San Diego, CA, USA). Values are presented as the means of three independent experiments.
# [4] = system: Dd2 and drug-resistant panel strains; test: Growth inhibition across Dd2 and drug-resistant panel strains; assay type: cell-based; conditions: Plasmodium falciparum, DD2, read-out: EC50s for growth inhibition, range over strains
# Protocol: as §2, §3
smiles,measurement,setting,value
Cc1cc(O)c2c(c1)O[C@@]1(C)CC[C@H]3C(C)(C)CCC[C@]34CO[C@@H]2[C@H]41 [Siccanin],Effect on DHODH activity,[1]; 10 µM,did not inhibit
same,Effect on DHODH activity,[1]; 60 μM,does not inhibit
same,remaining activity at 10 µM,"[1]; siccanin 10 μM, read-out: Relative residual activity of DHODH",101 ± 8.1%
same,Effect on NDH2 activity,[2]; 10 µM,did not inhibit
same,Relative residual activity of NDH2,[2]; siccanin 10 μM,101.8 ± 8.1%
same,EC50,[3],16.4 µM
same,EC50,[4],12.4 to 18.7 µM
